# From patent publication US8772286B2, “MK2 inhibitors” (Merck Sharp & Dohme B.V., priority 2009, dated 2014)
# Where two headings read alike, the source gives them in different places.
# Legend:
# [1] = target: T1, MK2 enzyme (Homo sapiens, UniProt P49137); assay: MK2 enzyme activity, IMAP fluorescence polarization assay; type: biochemical; details: MK2 IMAP assay
# T1 construct: MK2 enzyme (active enzyme (peptide 46-end (Millipore))); purchased Millipore
# How it was run: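 Enzyme kept in KR buffer (10 mM Tris-HCl, 10 mM MgCl2, 0.01% Tween-20, 2 mM DTT, pH 7.2) and acting on a fluorescein-labeled peptide substrate; final compound range 10 μM to 0.316 nM. After 60 min at room temperature, FP at 535 nm was read. Signal as percent of the with/without-ATP control difference, and EC50 by curve fit.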
# [2] = Solubility determination of MK2 inhibitors (kinetic aqueous solubility, UPLC); type: physicochemical; details: aqueous buffer (system solution from pION inc.), 22 °C, pH 7.4, aqueous buffer, kinetic from dmso stock
# How it was run: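 Kinetic shake-flask solubility (mg/L) at pH 7.4, room temperature (21-23° C.), 1% final DMSO from 10 mM DMSO stock, duplicates. Shaken 24 h, filtered (0.45 um), 1-propanol added to filtrate; dissolved compound quantified by UPLC-UV against external DMSO calibration line of the same compound.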
# [3] = 1 μM ATP, 30 min pre-incubation, 2 h room temperature, read-out: pEC50 value (converted)
# [4] = pH 7.4, room temperature, about 1% DMSO, 24 h shaking, read-out: solubility
# T1 sequence (P49137 46-400 limits assumed): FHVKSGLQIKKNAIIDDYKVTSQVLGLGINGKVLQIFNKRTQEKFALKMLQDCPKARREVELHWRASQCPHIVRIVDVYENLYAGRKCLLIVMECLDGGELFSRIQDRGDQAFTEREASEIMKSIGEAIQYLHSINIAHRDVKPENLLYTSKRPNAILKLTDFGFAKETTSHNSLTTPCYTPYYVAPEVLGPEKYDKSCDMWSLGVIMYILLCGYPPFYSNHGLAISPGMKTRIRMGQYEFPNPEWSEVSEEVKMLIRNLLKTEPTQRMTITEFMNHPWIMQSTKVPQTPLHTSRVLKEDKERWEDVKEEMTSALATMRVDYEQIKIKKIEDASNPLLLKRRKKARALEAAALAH
"EC50 [1, 3]","solubility at 24 h [2, 4]",SMILES,also measured
31.6 to 316 nM,20 to 50 mg/L,"CC(C)c1cccc(-c2nccc(-c3cc4c([nH]3)C3(CCNCC3)CNC4=O)n2)c1 [1—14, 2′-(2-(3-isopropylphenyl)pyrimidin-4-yl)-5′,6′-dihydrospiro[piperidine-4,7′-pyrrolo[3,2-c]pyridin]-4′(1′H)-one]",–
3.16 to 31.6 nM,≥ 50 mg/L,"O=C1NCC2(CCNCC2)c2[nH]c(-c3ccnc(-c4ccc5ccccc5c4)n3)cc21 [1—24, 2′-(2-(naphthalen-2-yl)pyrimidin-4-yl)-5′,6′-dihydrospiro[piperidine-4,7′-pyrrolo[3,2-c]pyridin]-4′(1′H)-one]",–
–,–,O=C1NCC2(CCNCC2)c2[nH]c(-c3ccnc(-c4ccc5c(c4)OCO5)n3)cc21 [17_1 Formula (I)],"pEC50, Formula (I) ([1]; Table 2, compound of Formula (I) with amine-containing spiro ring): 8.4; solubility at 24 h ([2]; Table 2, compound of Formula (I) with amine-containing spiro ring, pH 7.4, read-out: Solubility pH 7.4 (mg/L), Formula (I)): 37 mg/L"
3.16 to 31.6 nM,≥ 50 mg/L,"O=C(NC1CCCCC1)c1ccc(-c2nccc(-c3cc4c([nH]3)C3(CCNCC3)CNC4=O)n2)cc1 [1—36, N-cyclohexyl-4-(4-(4′-oxo-1′,4′,5′,6′-tetrahydrospiro[piperidine-4,7′-pyrrolo[3,2-c]pyridine]-2′-yl)pyrimidin-2-yl)benzamide]",–
–,–,O=C1NCCc2[nH]c(-c3ccnc(-c4cc5ccccc5o4)n3)cc21 [16_6 Formula (XV)],"EC50 ([1]; Table 1, comparison compound of Formula (XV) without spiro ring, read-out: pEC50, Formula (XV) (converted)): 50.1 nM; solubility at 24 h ([2]; Table 1, comparison compound of Formula (XV) without spiro ring, pH 7.4, read-out: Solubility pH 7.4 (mg/L), Formula (XV)): 2 mg/L"
–,–,O=C1NCC2(CCNCC2)c2[nH]c(-c3ccnc(-c4cnc5ccccc5c4)c3)cc21 [16_1 Formula (I)],"EC50 ([1]; Table 1, compound of Formula (I) with spiro ring, read-out: pEC50, Formula (I) (converted)): 1.26 nM; solubility at 24 h ([2]; Table 1, compound of Formula (I) with spiro ring, pH 7.4, read-out: Solubility pH 7.4 (mg/L), Formula (I)): 35 mg/L"

SMILES,"EC50 [1, 3]","solubility at 24 h [2, 4]",also measured
"CC(=O)NCCN1CCC2(CC1)CNC(=O)c1cc(-c3ccnc(-c4cc5ccccc5o4)n3)[nH]c12 [Example 3—1, N-(2-(2′-(2-(benzofuran-2-yl)pyrimidin-4-yl)-4′-oxo-1′,4′,5′,6′-tetrahydrospiro[piperidine-4,7′-pyrrolo[3,2-c]pyridine]-1-yl)ethyl)acetamide]",3.16 to 31.6 nM,≥ 50 mg/L,–
